Reference: patent US20240116985A1, “STAPLED PEPTIDES AND METHODS THEREOF” (priority 2020, published 2024)

What follows are compounds tested against T1, full-length beta-Catenin (Uniprot ID P35222) (Homo sapiens, UniProt P35222) (assay: Fluorescence polarization IC50 (beta-catenin / 5FAM-TCF4 10-53 competition)). Settings: fluorescence polarization; read-out: beta-Catenin FP IC50.
T1 construct: 10 nM full-length beta-Catenin (Uniprot ID P35222)
T1 sequence (P35222 1-781): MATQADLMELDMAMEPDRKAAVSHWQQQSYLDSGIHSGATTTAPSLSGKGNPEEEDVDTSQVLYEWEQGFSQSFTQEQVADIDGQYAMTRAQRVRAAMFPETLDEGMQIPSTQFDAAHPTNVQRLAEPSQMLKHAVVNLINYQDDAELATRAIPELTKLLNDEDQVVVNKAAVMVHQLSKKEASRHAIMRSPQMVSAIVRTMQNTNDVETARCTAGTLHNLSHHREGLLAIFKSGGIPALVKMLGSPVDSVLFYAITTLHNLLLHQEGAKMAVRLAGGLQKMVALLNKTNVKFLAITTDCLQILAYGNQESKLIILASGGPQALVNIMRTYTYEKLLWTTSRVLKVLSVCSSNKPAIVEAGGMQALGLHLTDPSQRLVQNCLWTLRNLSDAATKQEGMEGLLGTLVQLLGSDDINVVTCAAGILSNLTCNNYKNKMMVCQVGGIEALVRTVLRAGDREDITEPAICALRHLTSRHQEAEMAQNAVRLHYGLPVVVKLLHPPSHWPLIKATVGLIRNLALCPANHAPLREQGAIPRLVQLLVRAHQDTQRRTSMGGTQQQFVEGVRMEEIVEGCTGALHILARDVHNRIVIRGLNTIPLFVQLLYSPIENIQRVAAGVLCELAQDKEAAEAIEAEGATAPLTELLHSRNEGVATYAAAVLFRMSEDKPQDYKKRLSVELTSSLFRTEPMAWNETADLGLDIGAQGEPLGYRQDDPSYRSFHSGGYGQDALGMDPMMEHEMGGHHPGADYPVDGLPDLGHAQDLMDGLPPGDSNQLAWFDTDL
Type: binding
An IC50 of 189 nM was found for `CC(=O)N1CCC[C@]12CC=CCCCC1(CCCC=CCCOC(=O)N3CC[C@@](C(=O)N[C@@H](Cc4ccsc4)C(=O)N[C@@H](Cc4csc5ccccc45)C(=O)N[C@@H](CCC(N)=O)C(N)=O)(C3)NC(=O)[C@H](CC(C)C)NC(=O)[C@H](Cc3ccccc3)NC(=O)[C@H](C)NC(=O)[C@H](C)NC(=O)[C@H](CC(=O)O)NC(=O)[C@H](CC(=O)O)NC1=O)NC(=O)[C@H](CC(C)(C)C)NC(=O)[C@H](CC(=O)O)NC2=O` (stereo partly drawn) [I-1814, Ac-PL3-Asp-Npg-B5-Asp-Asp-Ala-Ala-Phe-Leu-PyrS1-3Thi-BztA-Gln-NH2] in this work.
An IC50 of 235 nM was found for `CC(=O)N1CCC[C@]12CC=CCCCC1(CCCC=CCOC(=O)N3CC[C@@](C(=O)N[C@@H](Cc4ccsc4)C(=O)N[C@@H](Cc4csc5ccccc45)C(=O)N[C@@H](CCC(N)=O)C(N)=O)(C3)NC(=O)[C@H](CC(N)=O)NC(=O)[C@H](Cc3ccccc3)NC(=O)[C@H](C)NC(=O)[C@H](C)NC(=O)[C@H](CC(=O)O)NC(=O)[C@H](CC(=O)O)NC1=O)NC(=O)[C@H](CC(C)(C)C)NC(=O)[C@H](CC(=O)O)NC2=O` (stereo partly drawn) [I-1816, Ac-PL3-Asp-Npg-B5-Asp-Asp-Ala-Ala-Phe-Asn-PyrS-3Thi-BztA-Gln-NH2] in this work.
An IC50 of 182 nM was found for `CC(=O)N1CCC[C@]12CC=CCCCC1(CCCC=CCOC(=O)N3CC[C@@](C(=O)N[C@@H](Cc4ccsc4)C(=O)N[C@@H](Cc4csc5ccccc45)C(=O)N[C@@H](CCC(N)=O)C(N)=O)(C3)NC(=O)[C@H](CC(N)=O)NC(=O)[C@H](Cc3ccccc3)NC(=O)[C@H](C)NC(=O)[C@H](C)NC(=O)[C@H](CC(=O)O)NC(=O)[C@H](CC(=O)O)NC1=O)NC(=O)[C@H](CC(C)(C)C)NC(=O)[C@H](CC(=O)O)NC2=O` (stereo partly drawn) [I-1817, Ac-PL3-Asp-Npg-B5-Asp-Asp-Ala-Ala-Phe-Asn-PyrS-3Thi-BztA-Gln-NH2] in this work.
An IC50 of 615 nM was found for `CC(=O)N1CCC[C@]12CC=CCCCC1(CCCC=CCCCCC[C@@](C)(C(=O)N[C@@H](Cc3ccsc3)C(=O)N[C@@H](Cc3csc4ccccc34)C(=O)N[C@@H](CCC(N)=O)C(N)=O)NC(=O)[C@H](CC(N)=O)NC(=O)[C@H](Cc3ccccc3)NC(=O)[C@H](C)NC(=O)[C@H](C)NC(=O)[C@H](CC(=O)O)NC(=O)[C@H](CC(=O)O)NC1=O)NC(=O)[C@H](CC(C)(C)C)NC(=O)[C@H](CC(=O)O)NC2=O` (stereo partly drawn) [I-1819, Ac-PL3-Asp-Npg-B5-Asp-Asp-Ala-Ala-Phe-Asn-S7-3Thi-BztA-Gln-NH2] in this work.
An IC50 of 422 nM was found for `CC(=O)N1CCC[C@]12CC=CCCCC1(CCCC=CCCCCC[C@@](C)(C(=O)N[C@@H](Cc3ccsc3)C(=O)N[C@@H](Cc3csc4ccccc34)C(=O)N[C@@H](CCC(N)=O)C(N)=O)NC(=O)[C@H](CC(C)C)NC(=O)[C@H](Cc3ccccc3)NC(=O)[C@H](C)NC(=O)[C@H](C)NC(=O)[C@H](CC(=O)O)NC(=O)[C@H](CC(=O)O)NC1=O)NC(=O)[C@H](CC(C)(C)C)NC(=O)[C@H](CC(=O)O)NC2=O` (stereo partly drawn) [I-1820, Ac-PL3-Asp-Npg-B5-Asp-Asp-Ala-Ala-Phe-Leu-S7-3Thi-BztA-Gln-NH2] in this work.
An IC50 of 366 nM was found for `CC(=O)N1CCC[C@]12CCCCCCC1(CCCCCCCCCC[C@@](C)(C(=O)N[C@@H](Cc3ccsc3)C(=O)N[C@@H](Cc3csc4ccccc34)C(=O)N[C@@H](CCC(N)=O)C(N)=O)NC(=O)[C@H](CC(N)=O)NC(=O)[C@H](Cc3ccccc3)NC(=O)[C@H](C)NC(=O)[C@H](C)NC(=O)[C@H](CC(=O)O)NC(=O)[C@H](CC(=O)O)NC1=O)NC(=O)[C@H](CC(C)(C)C)NC(=O)[C@H](CC(=O)O)NC2=O` (stereo partly drawn) [I-1825, Ac-PL3-Asp-Npg-B5-Asp-Asp-Ala-Ala-Phe-Asn-S7-3Thi-BztA-Gln-NH2] in this work.
An IC50 of 474 nM was found for `CC(=O)N1CCC[C@]12CC=CCCCC1(CCCC=CCOC(=O)N3CC(C(=O)N[C@@H](Cc4ccsc4)C(=O)N[C@@H](Cc4csc5ccccc45)C(=O)N[C@@H](CCC(N)=O)C(N)=O)(C3)NC(=O)[C@H](CC(N)=O)NC(=O)[C@H](Cc3ccccc3)NC(=O)[C@H](C)NC(=O)[C@H](C)NC(=O)[C@H](CC(=O)O)NC(=O)[C@H](CC(=O)O)NC1=O)NC(=O)[C@H](CC(C)(C)C)NC(=O)[C@H](CC(=O)O)NC2=O` (stereo partly drawn) [I-1826, Ac-PL3-Asp-Npg-B5-Asp-Asp-Ala-Ala-Phe-Asn-Az-3Thi-BztA-Gln-NH2] in this work.
An IC50 of 308 nM was found for `CC(=O)N1CCC[C@]12CC=CCCCC1(CCCC=CCOC(=O)N3CC(C(=O)N[C@@H](Cc4ccsc4)C(=O)N[C@@H](Cc4csc5ccccc45)C(=O)N[C@@H](CCC(N)=O)C(N)=O)(C3)NC(=O)[C@H](CC(N)=O)NC(=O)[C@H](Cc3ccccc3)NC(=O)[C@H](C)NC(=O)[C@H](C)NC(=O)[C@H](CC(=O)O)NC(=O)[C@H](CC(=O)O)NC1=O)NC(=O)[C@H](CC(C)(C)C)NC(=O)[C@H](CC(=O)O)NC2=O` (stereo partly drawn) [I-1827, Ac-PL3-Asp-Npg-B5-Asp-Asp-Ala-Ala-Phe-Asn-Az-3Thi-BztA-Gln-NH2] in this work.
An IC50 of 668 nM was found for `CC(=O)N1CCC[C@]12CC=CCCCC1(CCCC=CCOC(=O)N(C)CC[C@@](C)(C(=O)N[C@@H](Cc3ccsc3)C(=O)N[C@@H](Cc3csc4ccccc34)C(=O)N[C@@H](CCC(N)=O)C(N)=O)NC(=O)[C@H](CC(N)=O)NC(=O)[C@H](Cc3ccccc3)NC(=O)[C@H](C)NC(=O)[C@H](C)NC(=O)[C@H](CC(=O)O)NC(=O)[C@H](CC(=O)O)NC1=O)NC(=O)[C@H](CC(C)(C)C)NC(=O)[C@H](CC(=O)O)NC2=O` (stereo partly drawn) [I-1829, Ac-PL3-Asp-Npg-B5-Asp-Asp-Ala-Ala-Phe-Asn-SdN-3Thi-BztA-Gln-NH2] in this work.
An IC50 of 313 nM was found for `CC(=O)N1CCC[C@]12CC=CCCCC1(CCCC=CCOC(=O)N(C)CC[C@@](C)(C(=O)N[C@@H](Cc3ccsc3)C(=O)N[C@@H](Cc3csc4ccccc34)C(=O)N[C@@H](CCC(N)=O)C(N)=O)NC(=O)[C@H](CC(C)C)NC(=O)[C@H](Cc3ccccc3)NC(=O)[C@H](C)NC(=O)[C@H](C)NC(=O)[C@H](CC(=O)O)NC(=O)[C@H](CC(=O)O)NC1=O)NC(=O)[C@H](CC(C)(C)C)NC(=O)[C@H](CC(=O)O)NC2=O` (stereo partly drawn) [I-1830, Ac-PL3-Asp-Npg-B5-Asp-Asp-Ala-Ala-Phe-Leu-SdN-3Thi-BztA-Gln-NH2] in this work.
An IC50 of 1630 nM was found for `CC(=O)N1CCC[C@]12CCCCCCC1(CCCCCCOC(=O)N3CC(C(=O)N[C@@H](Cc4ccsc4)C(=O)N[C@@H](Cc4csc5ccccc45)C(=O)N[C@@H](CCC(N)=O)C(N)=O)(C3)NC(=O)[C@H](CC(N)=O)NC(=O)[C@H](Cc3ccccc3)NC(=O)[C@H](C)NC(=O)[C@H](C)NC(=O)[C@H](CC(=O)O)NC(=O)[C@H](CC(=O)O)NC1=O)NC(=O)[C@H](CC(C)(C)C)NC(=O)[C@H](CC(=O)O)NC2=O` (stereo partly drawn) [I-1831, Ac-PL3-Asp-Npg-B5-Asp-Asp-Ala-Ala-Phe-Asn-Az-3Thi-BztA-Gln-NH2] in this work.
An IC50 of 1110 nM was found for `CC(=O)N1CCC[C@]12CCCCCCC1(CCCCCCOC(=O)N3CC(C(=O)N[C@@H](Cc4ccsc4)C(=O)N[C@@H](Cc4csc5ccccc45)C(=O)N[C@@H](CCC(N)=O)C(N)=O)(C3)NC(=O)[C@H](CC(C)C)NC(=O)[C@H](Cc3ccccc3)NC(=O)[C@H](C)NC(=O)[C@H](C)NC(=O)[C@H](CC(=O)O)NC(=O)[C@H](CC(=O)O)NC1=O)NC(=O)[C@H](CC(C)(C)C)NC(=O)[C@H](CC(=O)O)NC2=O` (stereo partly drawn) [I-1832, Ac-PL3-Asp-Npg-B5-Asp-Asp-Ala-Ala-Phe-Leu-Az-3Thi-BztA-Gln-NH2] in this work.
An IC50 of 24 nM was found for `CC(=O)N1CCC[C@]12CC=CCCCC1(CCCC=CCCCOC(=O)N3CC[C@@](C(=O)N[C@@H](Cc4ccsc4)C(=O)N[C@@H](Cc4csc5ccccc45)C(=O)N[C@@H](CCC(N)=O)C(N)=O)(C3)NC(=O)[C@H](CC(C)C)NC(=O)[C@H](Cc3ccccc3)NC(=O)[C@H](C)NC(=O)[C@H](C)NC(=O)[C@H](CCN(CC(=O)O)CC(=O)O)NC(=O)[C@H](CC(=O)O)NC1=O)NC(=O)[C@H](CC(C)(C)C)NC(=O)[C@H](CC(=O)O)NC2=O` (stereo partly drawn) [I-1836, Ac-PL3-Asp-Npg-B5-Asp-[CH2CO2H]GAbu-Ala-Ala-Phe-Leu-PyrS2-3Thi-BztA-Gln-NH2] in this work.
An IC50 of 81 nM was found for `CC(=O)N1CCC[C@]12CC=CCCCC1(CCCC=CCCCOC(=O)N3CC[C@@](C(=O)N[C@@H](Cc4ccsc4)C(=O)N[C@@H](Cc4csc5ccccc45)C(=O)N[C@@H](CCC(N)=O)C(N)=O)(C3)NC(=O)[C@H](CC(C)C)NC(=O)[C@H](Cc3ccccc3)NC(=O)[C@H](C)NC(=O)[C@H](C)NC(=O)[C@H](CCN(CCN3CCOCC3)CC(=O)O)NC(=O)[C@H](CC(=O)O)NC1=O)NC(=O)[C@H](CC(C)(C)C)NC(=O)[C@H](CC(=O)O)NC2=O` (stereo partly drawn) [I-1842, Ac-PL3-Asp-Npg-B5-Asp-[MorphEt]GAbu-Ala-Ala-Phe-Leu-PyrS2-3Thi-BztA-Gln-NH2] in this work.
An IC50 of 227 nM was found for `CC(=O)N1CCC[C@]12CC=CCCCC1(CCCC=CCCCOC(=O)N3CC[C@@](C(=O)N[C@@H](Cc4ccsc4)C(=O)N[C@@H](Cc4csc5ccccc45)C(=O)N[C@@H](CCC(N)=O)C(N)=O)(C3)NC(=O)[C@H](CC(C)C)NC(=O)[C@H](Cc3ccccc3)NC(=O)[C@H](C)NC(=O)[C@H](C)NC(=O)[C@H](CNc3ccc([N+](=O)[O-])c(C(=O)O)c3)NC(=O)[C@H](CC(=O)O)NC1=O)NC(=O)[C@H](CC(C)(C)C)NC(=O)[C@H](CC(=O)O)NC2=O` (stereo partly drawn) [I-1844, Ac-PL3-Asp-Npg-B5-Asp-[3COOH4NO2Ph]Dap-Ala-Ala-Phe-Leu-PyrS2-3Thi-BztA-Gln-NH2] in this work.
